Laboratory results from ChEMBL document CHEMBL4020758, “Anti-atherosclerotic activities of flavonoids from the flowers of Helichrysum arenarium L. MOENCH through the pathway of anti-inflammation” (Bioorg Med Chem Lett, 2017).
The source made the active and inactive calls. The rule behind the calls is not given here.

How the values were obtained:
RAW264.7 = assay: Anti-inflammatory activity in mouse RAW264.7 cells assessed as inhibition of LPS/IFN-induced NO production at 10 to 20 uM measured 48 hrs post LPS/IFN challenge by Griess assay; assay type: functional, cell-based
Thoracic aorta [1] = assay: Anti-atherosclerosis activity in Sprague-Dawley rat thoracic aortic vascular ring endothelial injury model assessed as appearance of smooth vascular endothelial surface after 13 days by hematoxylin and eosin staining based assay; assay type: functional, tissue-based
Thoracic aorta [2] = assay: Anti-atherosclerosis activity in Sprague-Dawley rat thoracic aortic vascular ring endothelial injury model assessed as decrease in CRP level at 50 uM by ELISA; assay type: functional, tissue-based
Thoracic aorta [3] = assay: Anti-atherosclerosis activity in Sprague-Dawley rat thoracic aortic vascular ring endothelial injury model assessed as decrease in VEGF level at 25 uM by ELISA; assay type: functional, tissue-based
Thoracic aorta [4] = assay: Anti-atherosclerosis activity in Sprague-Dawley rat thoracic aortic vascular ring endothelial injury model assessed as decrease in VEGF level at 50 uM by ELISA; assay type: functional, tissue-based
Thoracic aorta [5] = assay: Anti-atherosclerosis activity in Sprague-Dawley rat thoracic aortic vascular ring endothelial injury model assessed as reduction in vascular endothelial proliferation after 13 days by hematoxylin and eosin staining based assay; assay type: functional, tissue-based
A7R5 [6] = assay: Antiproliferative activity against rat A7r5 cells at 50 uM after 24 hrs by MTT assay; assay type: functional, cell-based
Thoracic aorta [7] = assay: Anti-atherosclerosis activity in Sprague-Dawley rat thoracic aortic vascular ring endothelial injury model assessed as decrease in CRP level at 25 uM by ELISA; assay type: functional, tissue-based
A7R5 [8] = assay: Antiproliferative activity against rat A7r5 cells at 10 uM after 24 hrs by MTT assay; assay type: functional, cell-based
A7R5 [9] = assay: Antiproliferative activity against rat A7r5 cells at 100 uM after 24 hrs by MTT assay; assay type: functional, cell-based
Thoracic aorta [10] = assay: Anti-atherosclerosis activity in Sprague-Dawley rat thoracic aortic vascular ring endothelial injury model assessed as decrease in JNK2 level at 50 uM by ELISA; assay type: functional, tissue-based
Thoracic aorta [11] = assay: Anti-atherosclerosis activity in Sprague-Dawley rat thoracic aortic vascular ring endothelial injury model assessed as decrease in p38 level at 25 to 50 uM by ELISA; assay type: functional, tissue-based
Thoracic aorta [12] = assay: Anti-atherosclerosis activity in Sprague-Dawley rat thoracic aortic vascular ring endothelial injury model assessed as decrease in JNK2 level at 25 uM by ELISA; assay type: functional, tissue-based
Thoracic aorta [13] = assay: Anti-atherosclerosis activity in Sprague-Dawley rat thoracic aortic vascular ring endothelial injury model assessed as decrease in CRP level by ELISA; assay type: functional, tissue-based
Thoracic aorta [14] = assay: Anti-atherosclerosis activity in Sprague-Dawley rat thoracic aortic vascular ring assessed as restoration of injured vessel after 13 days by hematoxylin and eosin staining based assay; assay type: functional, tissue-based

SMILES | inhibition (RAW264.7) | Activity (Thoracic aorta [1]) | Activity (Thoracic aorta [2]) | Activity (Thoracic aorta [3]) | Activity (Thoracic aorta [4]) | Activity (Thoracic aorta [5]) | Activity (A7R5 [6]) | Activity (Thoracic aorta [7]) | Activity (A7R5 [8]) | Activity (A7R5 [9]) | Activity (Thoracic aorta [10]) | Activity (Thoracic aorta [11]) | Activity (Thoracic aorta [12]) | Activity (Thoracic aorta [13]) | Activity (Thoracic aorta [14])
O=c1cc(-c2ccc(O)c(O)c2)oc2cc(O)cc(O)c12 | Active | Active | Active | Active | Active | inactive | inactive | Active | inactive | inactive | – | – | – | – | –
C[C@@H]1O[C@@H](O[C@H]2[C@H](Oc3cc(O)c4c(c3)O[C@H](c3ccc(O)cc3)CC4=O)O[C@H](CO)[C@@H](O)[C@@H]2O)[C@H](O)[C@H](O)[C@H]1O | Active | Active | Active | – | Active | inactive | inactive | – | inactive | inactive | Active | Active | – | – | –
O=c1cc(-c2ccc(O)c(O)c2)oc2cc(O[C@@H]3O[C@H](CO)[C@@H](O)[C@H](O)[C@H]3O)cc(O)c12 | Active | Active | Active | – | Active | inactive | Active | Active | inactive | inactive | – | – | – | – | –
O=c1c(O)c(-c2ccc(O)cc2)oc2cc(O)cc(O)c12 | Active | Active | Active | Active | Active | inactive | Active | Active | inactive | inactive | Active | – | Active | Dose-dependent effect | –
C[C@@H]1O[C@@H](OC[C@H]2O[C@@H](Oc3cc(O)c4c(c3)O[C@H](c3ccc(O)cc3)CC4=O)[C@H](O)[C@@H](O)[C@@H]2O)[C@H](O)[C@H](O)[C@H]1O | Active | Active | Active | – | Active | inactive | inactive | – | inactive | inactive | – | Active | – | – | –
O=C1C[C@@H](c2ccc(O)c(O)c2)Oc2cc(O)cc(O)c21 | Active | Active | Active | – | Active | inactive | Active | Active | inactive | inactive | Active | Active | – | – | –
O=c1c(O[C@@H]2O[C@H](CO)[C@@H](O)[C@H](O)[C@H]2O)c(-c2ccc(O)cc2)oc2cc(O)cc(O)c12 | Active | Active | Active | – | Active | Active | Active | Active | inactive | inactive | Active | – | – | – | Active
